The target of this experiment is bovine cardiac myofibrils (full-length cardiac myosin ATPase in the native sarcomere) (Bos taurus (Bovine), UniProt Q9BE39). The experiment in a line: Skinned bovine cardiac myofibril ATPase assay (PK/LDH-coupled). The experiment is classed as biochemical. The following applies: Ca2+ activating to 75% of maximal rate; for CDMF75 IC15: concentration giving 15% inhibition; for IC50: read-out: CDMF75 IC50. The method, boiled down: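 Inhibition of steady-state ATPase read at 340 nm through a PK/LDH-coupled NADH system (0.5 mM NADH, 1.5 mM PEP). Detergent-skinned bovine cardiac myofibrils, 1 mg/mL, were tested at pH 6.8 in PIPES/MgCl2 with 50 μM ATP and calcium adjusted to give pCa50 or pCa75 activation.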

Bounds are passed on as bounds.

The text below walks through data of patent US12065436B2, “Cardiac sarcomere inhibitors” (Cytokinetics, Inc., priority 2018, dated 2024).

As a reminder, the IC50 is the point on the concentration scale where inhibition reaches its midpoint.

Chain of bovine cardiac myofibrils (full-length cardiac myosin ATPase in the native sarcomere) (Q9BE39 whole entry): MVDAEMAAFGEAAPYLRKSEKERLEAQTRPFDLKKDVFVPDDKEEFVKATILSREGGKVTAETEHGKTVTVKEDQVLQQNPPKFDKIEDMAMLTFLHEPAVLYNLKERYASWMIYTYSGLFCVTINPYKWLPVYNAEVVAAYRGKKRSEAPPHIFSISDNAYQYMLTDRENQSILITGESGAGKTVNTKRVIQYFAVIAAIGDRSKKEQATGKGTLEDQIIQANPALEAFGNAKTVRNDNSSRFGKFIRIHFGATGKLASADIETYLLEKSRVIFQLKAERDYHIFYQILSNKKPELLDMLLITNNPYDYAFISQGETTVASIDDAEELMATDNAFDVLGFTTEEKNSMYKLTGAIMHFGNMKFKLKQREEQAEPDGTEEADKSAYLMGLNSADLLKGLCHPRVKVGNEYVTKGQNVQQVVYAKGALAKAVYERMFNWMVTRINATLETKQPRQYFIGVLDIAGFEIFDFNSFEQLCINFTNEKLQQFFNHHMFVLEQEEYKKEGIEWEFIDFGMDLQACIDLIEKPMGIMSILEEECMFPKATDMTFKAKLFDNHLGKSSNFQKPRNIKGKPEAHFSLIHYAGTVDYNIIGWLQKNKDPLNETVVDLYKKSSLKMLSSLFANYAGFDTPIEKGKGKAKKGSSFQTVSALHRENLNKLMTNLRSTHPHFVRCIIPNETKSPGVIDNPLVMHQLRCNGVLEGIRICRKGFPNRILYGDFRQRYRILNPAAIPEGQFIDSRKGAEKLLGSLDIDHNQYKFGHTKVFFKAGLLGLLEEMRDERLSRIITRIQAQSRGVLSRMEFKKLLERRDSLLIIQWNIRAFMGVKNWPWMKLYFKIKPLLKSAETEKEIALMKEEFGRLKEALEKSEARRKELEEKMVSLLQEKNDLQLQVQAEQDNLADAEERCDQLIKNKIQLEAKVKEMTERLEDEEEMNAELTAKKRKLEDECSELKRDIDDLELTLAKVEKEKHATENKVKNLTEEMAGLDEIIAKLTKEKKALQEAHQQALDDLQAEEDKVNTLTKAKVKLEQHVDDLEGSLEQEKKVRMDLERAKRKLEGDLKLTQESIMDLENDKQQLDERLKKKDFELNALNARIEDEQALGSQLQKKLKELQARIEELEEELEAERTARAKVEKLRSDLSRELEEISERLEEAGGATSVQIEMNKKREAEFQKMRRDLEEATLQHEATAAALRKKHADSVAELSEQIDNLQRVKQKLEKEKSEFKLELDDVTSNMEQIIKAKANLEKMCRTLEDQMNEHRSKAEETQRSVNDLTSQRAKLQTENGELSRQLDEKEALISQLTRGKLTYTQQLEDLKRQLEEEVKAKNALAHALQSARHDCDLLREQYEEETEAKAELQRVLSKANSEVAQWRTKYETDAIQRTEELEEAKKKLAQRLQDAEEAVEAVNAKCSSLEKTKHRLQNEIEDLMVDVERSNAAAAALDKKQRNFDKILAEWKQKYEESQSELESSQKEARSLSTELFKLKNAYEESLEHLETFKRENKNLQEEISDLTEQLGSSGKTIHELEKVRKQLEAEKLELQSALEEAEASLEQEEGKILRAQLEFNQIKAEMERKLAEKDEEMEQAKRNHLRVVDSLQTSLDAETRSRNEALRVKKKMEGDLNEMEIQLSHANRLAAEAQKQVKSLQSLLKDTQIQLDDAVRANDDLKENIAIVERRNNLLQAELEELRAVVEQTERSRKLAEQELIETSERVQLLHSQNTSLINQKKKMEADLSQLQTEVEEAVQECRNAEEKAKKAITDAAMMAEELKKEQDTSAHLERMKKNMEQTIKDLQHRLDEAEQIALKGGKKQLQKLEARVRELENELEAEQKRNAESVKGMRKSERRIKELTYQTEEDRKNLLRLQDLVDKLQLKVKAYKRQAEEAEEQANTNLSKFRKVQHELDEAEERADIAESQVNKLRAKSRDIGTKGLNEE
Chain of bovine cardiac myofibrils (full-length cardiac myosin ATPase in the native sarcomere) (P85100 whole entry partner): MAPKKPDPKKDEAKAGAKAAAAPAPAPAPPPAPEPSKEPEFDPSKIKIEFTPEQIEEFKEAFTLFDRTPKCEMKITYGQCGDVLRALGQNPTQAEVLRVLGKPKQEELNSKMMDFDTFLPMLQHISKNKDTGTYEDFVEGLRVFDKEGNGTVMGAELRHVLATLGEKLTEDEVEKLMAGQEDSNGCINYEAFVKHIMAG
Chain of bovine cardiac myofibrils (full-length cardiac myosin ATPase in the native sarcomere) (Q3SZE5 whole entry partner): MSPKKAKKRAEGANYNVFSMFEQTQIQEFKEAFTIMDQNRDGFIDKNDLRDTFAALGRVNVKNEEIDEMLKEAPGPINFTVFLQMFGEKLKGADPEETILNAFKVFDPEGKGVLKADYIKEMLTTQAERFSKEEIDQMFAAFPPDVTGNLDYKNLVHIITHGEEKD

As to `Cc1nccc(-c2ccc3c(c2)CC[C@H]3NC(=O)c2ccnn2C)n1` [Compound 379, (R)-1-methyl-N-(5-(2-methylpyrimidin-4-yl)-2,3-dihydro-1H-inden-1-yl)-1H-pyrazole-5-carboxamide], the “CDMF75 IC15” value is 39.2 µM and the IC50 was above 39.2 µM.

Turning to `CCc1nc(-c2ccc3c(c2)CC[C@H]3NC(=O)c2cnn(CCOC)c2C)no1` [Compound 575, (R)-N-(5-(5-ethyl-1,2,4-oxadiazol-3-yl)-2,3-dihydro-1H-inden-1-yl)-1-(2-methoxyethyl)-5-methyl-1H-pyrazole-4-carboxamide], the “CDMF75 IC15” value worked out at 1.1 µM and the IC50 is 4.2 µM.

On to `CCc1nc(-c2ccc3c(c2)CC[C@H]3NC(=O)c2ccnc(C(C)(C)O)c2)no1` [Compound 610, (R)-N-(5-(5-ethyl-1,2,4-oxadiazol-3-yl)-2,3-dihydro-1H-inden-1-yl)-2-(2-hydroxypropan-2-yl)isonicotinamide], for which the “CDMF75 IC15” value was found to be 2.0 µM and the IC50 turned out to be 8.6 µM.

With `CCc1nc(-c2ccc3c(c2)CC[C@H]3NC(=O)c2cnn(C3CN(S(C)(=O)=O)C3)c2)no1` [Compound 478, (R)-N-(5-(5-ethyl-1,2,4-oxadiazol-3-yl)-2,3-dihydro-1H-inden-1-yl)-1-(1-(methylsulfonyl)azetidin-3-yl)-1H-pyrazole-4-carboxamide], the “CDMF75 IC15” value amounted to 2.9 µM and the IC50 was 11.9 µM.

For the compound `CCc1cc(-c2ccc3c(c2)OC[C@H]3NC(=O)c2ccnc(C)c2)no1` [Compound 425, (S)-N-(6-(5-ethylisoxazol-3-yl)-2,3-dihydrobenzofuran-3-yl)-2-methylisonicotinamide], the “CDMF75 IC15” value came out at 0.3 µM and the IC50 is 1.2 µM.

Take `O=C(N[C@@H]1CCc2cc(-c3noc(C(F)F)n3)ccc21)C1CCC1` [Compound 309, (R)-N-(5-(5-(difluoromethyl)-1,2,4-oxadiazol-3-yl)-2,3-dihydro-1H-inden-1-yl)cyclobutanecarboxamide]: the “CDMF75 IC15” value was 39.2 µM and the half-maximal inhibitory concentration (IC50) is above 39.2 µM.

On to `Cc1cc(C(=O)NC2CCc3cc(-c4noc(C)n4)ccc32)n(C)n1` (stereo not drawn) [Compound 47, 1,3-dimethyl-N-(5-(5-methyl-1,2,4-oxadiazol-3-yl)-2,3-dihydro-1H-inden-1-yl)-1H-pyrazole-5-carboxamide], for which the “CDMF75 IC15” value is 1.4 µM and the IC50 came out at 5 µM.

As for `CCc1nc(-c2ccc3c(c2)OC[C@H]3NC(=O)c2cc(C)nn2C)no1` [Compound 231, (S)-N-(6-(5-ethyl-1,2,4-oxadiazol-3-yl)-2,3-dihydrobenzofuran-3-yl)-1,3-dimethyl-1H-pyrazole-5-carboxamide], the “CDMF75 IC15” value stood at 0.3 µM and the IC50 was 1 µM.

As to `CC(C)OC(=O)N[C@@H]1CCc2cc(-c3noc(C(F)F)n3)ccc21` [Compound 279, isopropyl (R)-(5-(5-(difluoromethyl)-1,2,4-oxadiazol-3-yl)-2,3-dihydro-1H-inden-1-yl)carbamate], the “CDMF75 IC15” value amounted to 22.4 µM and the IC50 was above 39.2 µM.

For the compound `O=C(N[C@@H]1CCc2cc(-c3noc(C(F)F)n3)ccc21)OC1CNC1` [Compound 291, azetidin-3-yl (R)-(5-(5-(difluoromethyl)-1,2,4-oxadiazol-3-yl)-2,3-dihydro-1H-inden-1-yl)carbamate], the “CDMF75 IC15” value was determined as 17.3 µM and the IC50 was above 39.2 µM.

Turning to `Cc1nc(C)c(C(=O)NC2COc3cc(-c4noc(C(F)F)n4)ccc32)o1` (stereo not drawn) [Compound 192, N-(6-(5-(difluoromethyl)-1,2,4-oxadiazol-3-yl)-2,3-dihydrobenzofuran-3-yl)-2,4-dimethyloxazole-5-carboxamide], the “CDMF75 IC15” value came to 1.0 µM and the IC50 is 3.8 µM.

As for `Cn1cc(C(=O)N[C@@H]2CCc3cc(-c4nc(C5CC5)no4)ccc32)cn1` [Compound 258, (R)-N-(5-(3-cyclopropyl-1,2,4-oxadiazol-5-yl)-2,3-dihydro-1H-inden-1-yl)-1-methyl-1H-pyrazole-4-carboxamide], the “CDMF75 IC15” value is 1.5 µM and the IC50 amounted to 5.7 µM.

As for `COCc1nc(-c2ccc3c(c2)CC[C@H]3NC(=O)c2cnc(C)s2)no1` [Compound 696, (R)-N-(5-(5-(methoxymethyl)-1,2,4-oxadiazol-3-yl)-2,3-dihydro-1H-inden-1-yl)-2-methylthiazole-5-carboxamide], the “CDMF75 IC15” value came to 1.1 µM and the IC50 was found to be 4.2 µM.

Regarding `Cc1nn(C)cc1C(=O)NC1CCc2cc(-c3noc(C4CC4)n3)ccc21` (stereo not drawn) [Compound 73, N-(5-(5-cyclopropyl-1,2,4-oxadiazol-3-yl)-2,3-dihydro-1H-inden-1-yl)-1,3-dimethyl-1H-pyrazole-4-carboxamide], the “CDMF75 IC15” value stood at 0.7 µM and the IC50 was 2.5 µM.

`C=Cc1nc(-c2ccc3c(c2)CC[C@H]3NC(=O)c2cnn(C)c2)no1` [Compound 547, N-[(1R)-5-(5-vinyl(1,2,4-oxadiazol-3-yl))indanyl](1-methylpyrazol-4-yl)carboxamide]: the “CDMF75 IC15” value was found to be 0.4 µM and the IC50 was determined as 1.5 µM.

As for `[2H]C([2H])([2H])c1nc(-c2ccc3c(c2)CC[C@H]3NC(=O)c2nnn(C)n2)no1` [Compound 243, (R)-2-methyl-N-(5-(5-(methyl-d3)-1,2,4-oxadiazol-3-yl)-2,3-dihydro-1H-inden-1-yl)-2H-tetrazole-5-carboxamide], the “CDMF75 IC15” value was 1.3 µM and the IC50 is 4.7 µM.

Turning to `CCc1nc(-c2ccc3c(c2)CC[C@H]3NC(=O)c2coc(C)n2)no1` [Compound 561, (R)-N-(5-(5-ethyl-1,2,4-oxadiazol-3-yl)-2,3-dihydro-1H-inden-1-yl)-2-methyloxazole-4-carboxamide], the “CDMF75 IC15” value was determined as 1.4 µM and the IC50 is 7 µM.

As to `Cc1nn(C)cc1C(=O)NC1CCc2cc(-c3noc([C@H](C)O)n3)ccc21` (stereo partly drawn) [Compound 80, N-(5-(5-((S)-1-hydroxyethyl)-1,2,4-oxadiazol-3-yl)-2,3-dihydro-1H-inden-1-yl)-1,3-dimethyl-1H-pyrazole-4-carboxamide], the “CDMF75 IC15” value turned out to be 27.5 µM and the half-inhibitory concentration (IC50) is above 39.2 µM.

On to `CCc1nc(-c2ccc3c(c2)CC[C@H]3NC(=O)c2c[nH]nc2C)no1` [Compound 398, (R)-N-(5-(5-ethyl-1,2,4-oxadiazol-3-yl)-2,3-dihydro-1H-inden-1-yl)-3-methyl-1H-pyrazole-4-carboxamide], for which the “CDMF75 IC15” value is 0.4 µM and the IC50 amounted to 1.2 µM.

Regarding `CCc1nc(-c2ccc3c(c2)CC[C@H]3NC(=O)c2ccnnc2)no1` [Compound 632, (R)-N-(5-(5-ethyl-1,2,4-oxadiazol-3-yl)-2,3-dihydro-1H-inden-1-yl)pyridazine-4-carboxamide], the “CDMF75 IC15” value turned out to be 0.5 µM and the IC50 was determined as 1.5 µM.

As for `COCCn1cc(C(=O)N[C@@H]2CCc3cc(-c4noc(C)n4)ccc32)cn1` [Compound 509, (R)-1-(2-methoxyethyl)-N-(5-(5-methyl-1,2,4-oxadiazol-3-yl)-2,3-dihydro-1H-inden-1-yl)-1H-pyrazole-4-carboxamide], the “CDMF75 IC15” value amounted to 3.2 µM and the IC50 came to 12.8 µM.
